Consider five compounds from patent US10745433B2, “Compounds for inhibiting cancer and virus” (priority 2016, dated 2020).

Entries after “also recorded” stand apart in the source; their conditions may differ. Where two headings read alike, the source gives them in different places.

One data set concerns MKN45. Description: Growth inhibition assay (MTT), MKN45. The data set is classed as cell-based. The conditions noted are these: Homo sapiens. As to the method:
(§1) The compounds of the invention were subjected to growth inhibition assay. Cells were seeded in 96-well plastic plates and exposed to the compounds of the invention for 72 hours. Cell viability was assessed using the 3-(4,5-dimethylthiazol-2-yl)-2,5-diphenyltetrazolium bromide assay.

A further data set relates to PC3. Description: Growth inhibition assay (MTT), PC3. It is filed as cell-based. The conditions noted are these: Homo sapiens. As to the method: as §1
For a further data set, the system named is MCF-7. Description: Growth inhibition assay (MTT), MCF-7. It is filed as cell-based. The conditions noted are these: Homo sapiens. As to the method:
as §1

In the next data set the test system is HT29. Description: Growth inhibition assay (MTT), HT29. It is filed as cell-based. Particulars: Homo sapiens. As to the method: as §1
For another data set, the system named is DU145. Description: Growth inhibition assay (MTT), DU145. The data set is classed as cell-based. Particulars: Homo sapiens. As to the method: as §1
Another data set has as its system HCT116. Description: Growth inhibition assay (MTT), HCT116. It is filed as cell-based. The conditions noted are these: Homo sapiens. As to the method: as §1
For another data set, the system named is LNCap. Description: Growth inhibition assay (MTT), LNCap. The conditions noted are these: Homo sapiens. It is filed as cell-based. As to the method:
as §1

The subject of another data set is N87. Description: Growth inhibition assay (MTT), N87. It is filed as cell-based. As to the method: as §1
Data set [1] is described as follows: Metabolic stability in rat liver microsomes. The data set is classed as in vitro ADME. Particulars: FIG. 3. In general terms: Liver microsomes are vesicles of endoplasmic reticulum, rich in cytochrome P450 enzymes.
Data set [2] has as its system Zika virus (PRVABC59 strain). Description: Zika animals study. The data set is classed as in vivo. As to the method: The Zika sensitive female mice: ROSA, STAT1^−/− strain was used. MPT0L167 was used to pre-treat the mice for one day. 4*10^7 cells (U-87 MG human glioblastoma cell with infection with Zika virus (PRVABC59 strain)) were injection in mice. After infection, MPT0L167 was administered with 100 mg/kg to the mice by po,qd. The virus detection in serum at day 3. The concentration of virus in serum was detected by Viralplaque assays.

The nature of data set [3]: Metabolic stability in dog liver microsomes. The data set is classed as in vitro ADME. Particulars: FIG. 3.
The test system of data set [4] is human HCT116 colorectal cancer. Description: Human colorectal cancer HCT116 xenograft model. It is filed as in vivo. Particulars: oral, female nude mice; for body weight: FIG. 2(B). From the text: Anti-cancer Activity Evaluation of the Compounds of the Invention (MPT0L167 and MPT0L179) Against Human MDA-MB-231 Breast Cancer in MDA-MB-231 Xenograft Animal Model and Human Colorectal Cancer HCT116 Xenograft Model […] This study utilized five groups of mice (n=7-8) bearing established human HCT116 colorectal cancer with mean volumes of ˜200 mm^3.
(A xenograft is tissue or cells of one species grown in another, often human tumour cells in immunodeficient mice.)

Data set [5] is described as follows: Pharmacokinetic study (PK), i.v. in rats. It is filed as in vivo. Particulars: 2 mg/kg i.v. As to the method:
2 mg/kg of niclosamide (MPT0L166) and MPT0L167, MPT0L180 and MPT0L196 were each independently given to five rats by i.v. The blood samples were taken from the rats after 0.03 hour, 0.08 hour, 0.25 hour, 0.5 hour, 1 hour, 2 hours, 4 hours, 6 hour, 8 hours and 24 hours. LC-MS/MS was used to detect the concentration of MPT0L167 in blood.

Data set [6] concerns human MDA-MB-231 breast adenocarcinoma. Description: MDA-MB-231 xenograft animal model. The data set is classed as in vivo. The conditions noted are these: oral, female nude mice; for body weight: FIG. 1(B). The text has this:
Anti-cancer Activity Evaluation of the Compounds of the Invention (MPT0L167 and MPT0L179) Against Human MDA-MB-231 Breast Cancer in MDA-MB-231 Xenograft Animal Model and Human Colorectal Cancer HCT116 Xenograft Model […] This study utilized five groups of mice (n=7-8) bearing established human MDA-MB-231 breast adenocarcinoma with mean volumes of ˜250 mm^3.

A short description of data set [7]: Metabolic stability in human liver microsomes. Particulars: FIG. 3. It is filed as in vitro ADME.
In the next data set the test system is MIAPACA. Description: Growth inhibition assay (MTT), MIAPACA. The data set is classed as cell-based. The conditions noted are these: Homo sapiens, MIA PaCa-2, 72 hours. As to the method: as §1
For another data set, the system named is Panc-1. Description: Growth inhibition assay (MTT), Panc-1. It is filed as cell-based. The conditions noted are these: Homo sapiens, Panc-1, Pancreatic cancer, 72 hours. As to the method:
as §1

[8] abbreviates: MKN-45, MKN45, Gastric cancer, 72 hours, MTT, read-out: IC50.
Setting [9] is: PC-3, PC3, Prostate cancer, 72 hours, MTT, read-out: IC50.
Where [10] appears, read: MCF7, MCF-7, Breast cancer, 72 hours, MTT, read-out: IC50.
Setting [11] is: HT-29, HT29, Colon cancer, 72 hours, MTT, read-out: IC50.
Where [12] appears, read: DU-145, DU145, Prostate cancer, 72 hours, MTT, read-out: IC50.
Where [13] appears, read: HCT-116, HCT116, Colon cancer, 72 hours, MTT, read-out: IC50.
Setting [14] is: LNCap, Prostate cancer, 72 hours, MTT, read-out: IC50.
The mark [15] stands for this setting: N87, Gastric cancer, 72 hours, MTT, read-out: IC50.

The IC50 is the point on the concentration scale where inhibition reaches its midpoint. The melting point is the temperature, or range, at which the solid turns liquid. In turn, `O=C(Nc1ccc([N+](=O)[O-])cc1Cl)c1cc(Cl)ccc1OC(=O)N1CCC(N2CCCCC2)CC1` [MPT0L196, [1,4′]Bipiperidinyl-1′-carboxylic acid 4-chloro-2-(2-chloro-4-nitro-phenylcarbamoyl)-phenyl ester] had a melting point of 216.3 to 217.9 °C. Besides, the IC50 in the data set on MKN45 (MKN-45, 72 h) is > 25 µM. Moreover, the IC50 in the data set on PC3 (PC-3, 72 h) was > 25 µM. Further, the IC50 with MCF-7 (MCF7, 72 h) was > 25 µM. The half-maximal inhibitory concentration (IC50) with HT29 (HT-29, 72 h) was > 50 µM. Moreover, the IC50 in the data set on DU145 (DU-145, 72 h) is > 25 µM. Moreover, the half-inhibitory concentration (IC50) in the data set on HCT116 (HCT-116, 72 h) is > 50 µM. In the data set on LNCap (LNCaP, 72 h), the IC50 is > 25 µM. The IC50 in the data set on N87 (72 h) was > 25 µM.

For `CC(=O)OCOc1ccc(Cl)cc1C(=O)Nc1ccc([N+](=O)[O-])cc1Cl` [MPT0L180, Acetic acid 4-chloro-2-(2-chloro-4-nitro-phenylcarbamoyl)-phenoxymethyl ester], the melting point lay in the range of 195.5 to 197.2 °C. Also, the IC50 with MKN45 (setting [8]) was > 25 µM. Besides, the IC50 with PC3 (setting [9]) was > 25 µM. Also, in the data set on MCF-7 (setting [10]), the IC50 is > 25 µM. Moreover, in the data set on HT29 (setting [11]), the IC50 was > 50 µM. Further, in the data set on DU145 (setting [12]), the IC50 was > 25 µM. The IC50 in the data set on HCT116 (setting [13]) was > 50 µM. Further, the IC50 with LNCap (setting [14]) worked out at 2.44 µM. In addition, the IC50 in the data set on N87 (setting [15]) was > 25 µM.

As a reminder, the AUC(0-inf) is total exposure, with the tail of the curve extrapolated. Higher therefore signals more exposure. For orientation: AUC(0-t) means exposure summed from dosing to a finite time, without extrapolation to infinity. A high value points to high exposure. One may read the Cmax as the peak of the concentration-time curve. As usually defined, the MRT inf is a mean duration of stay, worked out from the concentration-time curve. For orientation: Tmax means the time from dosing to the highest level. The term half-life denotes the time needed for the level to fall by half in the phase considered. The low end stands for fast loss, the high end for slow loss. The compound `O=C(Nc1ccc([N+](=O)[O-])cc1Cl)c1cc(Cl)ccc1OC1OC(CO)C(O)C(O)C1O` (centres unmarked) [MPT0L167, 5-Chloro-N-(2-chloro-4-nitro-phenyl)-2-(3,4,5-trihydroxy-6-hydroxymethyl-tetrahydro-pyran-2-yloxy)-benzamide] came in with a melting point of 212.6 to 213.2 °C. Also, in the data set on MKN45 (setting [8]), the IC50 was > 25 µM. The IC50 with PC3 (setting [9]) is > 25 µM. The “metabolic stability compared with MPT0L166” value in data set [1] is “more stable than MPT0L166”. Moreover, the IC50 in the data set on MCF-7 (setting [10]) was > 25 µM. Also, the IC50 in the data set on HT29 (setting [11]) is > 50 µM. Also, in [2] (female ROSA, STAT1−/− mice, 100 mg/kg po,qd, serum at day 3, FIG. 4(A)), the “concentration of virus in serum (Viralplaque assays)” value is reported as “inhibition of Zika virus infection; also recorded: significantly inhibits Zika virua growth”. Besides, the body weight result in [2] (mouse, in vivo, po, 100 mg/kg) is reported as “does not significant reduce body weight; also recorded: not significantly changed”. Moreover, the “metabolic stability compared with MPT0L166” value in [3] is on record as “more stable than MPT0L166”. The tumor volume entry in data set [4] (FIG. 2(A)) is on record as “significantly reduces tumor volume”. Also, the body weight result in data set [4] is on record as “does not significantly reduce body weight”. The body weight entry in data set [4] (listed as MPLOL167) is “did not exhibit significant change”. In addition, in the data set with DU145 (setting [12]), the half-maximal inhibitory concentration (IC50) is > 25 µM. In the data set with HCT116 (setting [13]), the IC50 was > 50 µM. In [5], the “half-life in vivo compared with niclosamide (MPT0L166)” value was “longer half-life than MPT0L166”. In data set [5] (mean), the “AUC % Extrap obs” value was determined as 1.15%. In data set [5] (rat, blood, iv, mean), this compound showed an AUC(0-inf) of 0.587 µg·h/mL, an AUC(0-t) of 0.58 µg·h/mL, a Cmax of 3.88 µg/mL and an MRT inf of 1.4 h. Further, in [5] (rat, blood, iv, mean), the Tmax came out at 1.8 min and the half-life was 7.38 h. In data set [5] (rat, blood, iv, mean, read-out: CL obs (converted)), the clearance is 3.55 L/h/kg. For the same compound, the Vd in data set [5] (rat, blood, iv, mean, read-out: VZ obs) was 37.3 L/kg. Also, the tumor volume entry in data set [6] (FIG. 1(A)) is on record as “significantly reduces tumor volume”. Besides, the body weight result in data set [6] is on record as “does not significantly reduce body weight”. For the same compound, in [6] (listed as MPLOL167), the body weight entry is recorded as “did not exhibit significant change”. Also, the IC50 in the data set on LNCap (setting [14]) was > 25 µM. Besides, the IC50 in the data set on N87 (setting [15]) was > 25 µM. Also, the “metabolic stability compared with MPT0L166” value in [7] is on record as “more stable than MPT0L166”.

`O=C(Nc1ccc([N+](=O)[O-])c(C(F)(F)F)c1)c1cc(Cl)ccc1O` came in with a melting point of 172.4 to 174 °C.

For `O=C(Nc1ccc([N+](=O)[O-])cc1Cl)c1cc(Cl)ccc1O` [#166, niclosamide, reference compound], the IC50 in the data set on MKN45 (setting [8]) is > 25 µM; with PC3 (setting [9]) it was 1.04 µM; in the data set with MCF-7 (setting [10]), 3.69 µM; in the data set with HT29 (setting [11]), 31.1 µM; in the data set with MIAPACA, 1.17 µM; in the data set with DU145 (setting [12]) it was > 10 µM. Also, the IC50 was 5.64 µM in the data set with HCT116 (setting [13]), 0.43 µM in the data set with Panc-1, 0.97 µM in the data set on LNCap (setting [14]) and 0.14 µM in the data set on N87 (setting [15]).
